Data as given in patent US11530244B2, “Cyclic polypeptides for PCSK9 inhibition” (priority 2018, dated 2022).
Starred links: 1 amine or outer side, 2 acyl side, 3 side chain; linkers in the order of their positions; H or OH if unused. Positions of bridges follow the written chain, without caps; N, C: chain ends. Non-standard residues stand in square brackets, D forms with d. Residues, ends and D or L forms follow the SMILES beside them. Phe(3-CH2NH2) = O=C([C@H](Cc1cccc(CN[*:3])c1)N[*:1])[*:2]; Trp(5-F) = N[C@@H](Cc1c[nH]c2ccc(F)cc12)C(=O)O; dTrp(5-F) = N[C@H](Cc1c[nH]c2ccc(F)cc12)C(=O)O; Trp(7-aza) = N[C@@H](Cc1c[nH]c2ncccc12)C(=O)O; Asp(3,3-Me2) = CC(C)(C(=O)O)[C@H](N)C(=O)O; X17 = O=C(CCSCc1ccc(CSCCN[*:1])cc1)[*:2]; Pro(4S-NH2) = N[C@@H]1CN[C@H](C(=O)O)C1; X4 = O=C(CCSCc1cccc(CSCCN[*:1])c1)[*:2]; TBMB = c1c(C[*:1])cc(C[*:3])cc1C[*:2]; mXylylene = c1cc(C[*:1])cc(C[*:2])c1; d(aThr) = C[C@@H](O)[C@@H](N)C(=O)O; X22 = Oc1cc(C[*:1])cc(C[*:2])c1; Aad = N[C@@H](CCCC(=O)O)C(=O)O; d(αMeP) = C[C@]1(C(=O)O)CCCN1; Tle = CC(C)(C)[C@H](N)C(=O)O; αMeP = C[C@@]1(C(=O)O)CCCN1; dDab = NCC[C@@H](N)C(=O)O; dDap = NC[C@@H](N)C(=O)O; Mpa = O=C(O)CCS

What was measured:
[1] = target: PCSK9 (Homo sapiens (Human), UniProt Q8NBP7); assay: PCSK9 Alexa FRET Standard assay (displacement of AlexaFluor647 tagged cyclic peptide Reagent A); assay type: binding; conditions: PCSK9 Alexa FRET Standard assay, 0.5 nM PCSK9, 20 nM AF cyclic peptide Reagent A; read-out: IC50
Outline: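 TR-FRET displacement: 0.5 nM biotinylated PCSK9 with 1.25 nM Strep-Eu and 20 nM AlexaFluor-tagged cyclic peptide (final) in 50 mM HEPES pH 7.4, 0.15 M NaCl, 5 mM CaCl2, 0.01% BSA, 0.01% P20, ≥2 h at room temperature. IC50 from sigmoidal fit, converted to Ki via peptide KD; falling Eu counts flagged false positives.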

[2] = target: human PCSK9 / human LDLR EGFa domain interaction (Homo sapiens (Human), UniProt Q8NBP7); assay: TR-FRET assay of inhibition of the PCSK9-LDLR protein-protein interaction; assay type: binding; conditions: TR-FRET, 20 nM human PCSK9, 20 nM human LDLR EGFa domain, 2 hours room temperature; read-out: IC50
Outline: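 Inhibition of PCSK9 binding to the LDLR EGFa domain, each protein at 20 nM, detected by TR-FRET using streptavidin and anti-His donor/acceptor labels (5 nM). Two-hour room-temperature incubation in calcium-containing HEPES buffer.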

Chain of human PCSK9 / human LDLR EGFa domain interaction (Q8NBP7 153-692): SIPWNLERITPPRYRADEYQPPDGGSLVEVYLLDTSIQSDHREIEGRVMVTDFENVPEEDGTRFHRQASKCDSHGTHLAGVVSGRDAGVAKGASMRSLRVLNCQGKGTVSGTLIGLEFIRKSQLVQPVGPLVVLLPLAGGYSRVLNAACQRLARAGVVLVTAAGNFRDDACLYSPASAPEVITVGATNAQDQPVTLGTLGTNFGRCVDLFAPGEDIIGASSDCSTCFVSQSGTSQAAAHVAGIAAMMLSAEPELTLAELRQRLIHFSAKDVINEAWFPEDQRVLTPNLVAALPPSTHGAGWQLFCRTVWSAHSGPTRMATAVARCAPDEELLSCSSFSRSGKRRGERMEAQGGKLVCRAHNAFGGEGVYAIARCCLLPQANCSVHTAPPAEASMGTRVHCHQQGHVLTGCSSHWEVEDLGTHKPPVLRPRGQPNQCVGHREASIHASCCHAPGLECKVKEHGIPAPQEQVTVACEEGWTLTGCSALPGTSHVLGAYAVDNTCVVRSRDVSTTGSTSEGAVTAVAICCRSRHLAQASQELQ
Chain of human PCSK9 / human LDLR EGFa domain interaction (Q8NBP7 31-152 partner): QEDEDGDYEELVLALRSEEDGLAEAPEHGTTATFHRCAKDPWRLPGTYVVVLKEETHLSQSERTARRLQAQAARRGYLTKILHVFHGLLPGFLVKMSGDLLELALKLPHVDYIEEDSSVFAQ
Chain of PCSK9 (Q8NBP7 153-692): as the sequence (Q8NBP7 153-692) above

Row | IC50 [1] [nM] | IC50 [2] [nM] | Structure (SMILES)
1 | 21000 to 50000 | 21000 to 50000 | COc1ccc(C[C@@H]2NC(=O)[C@H](CCCC(=O)O)NC(=O)[C@@H]3C[C@H](N)CN3C(=O)[C@H](Cc3c[nH]c4ccc(F)cc34)NC(=O)[C@H](Cc3c[nH]c4ccc(F)cc34)NC(=O)[C@@H](C)NC(=O)[C@H](C)NC(=O)CCSCc3ccc(cc3)CSCCNC(=O)[C@]3(C)CCCN3C2=O)cc1 [Compound 345] (cyclo(A[dA][Trp(5-F)][Trp(5-F)][Pro(4S-NH2)][Aad]Y(Me)[αMeP][X17]))
2 | 1000 to 12100 | 0.1 to 100 | COc1ccc(C[C@@H]2NC(=O)[C@@H]([C@@H](C)O)NC(=O)[C@H](CCCC(=O)O)NC(=O)[C@H](Cc3c[nH]c4ccc(F)cc34)NC(=O)[C@H](Cc3cccc(CN)c3)NC(=O)[C@@H](C)NC(=O)[C@H](C)NC(=O)CCSCc3cccc(c3)CSCCNC(=O)[C@]3(C)CCCN3C2=O)cc1 [Compound 346] (cyclo(A[dA][Phe(3-CH2NH2)][Trp(5-F)][Aad][d(aThr)]Y(Me)[αMeP][X4]))
3 | 21000 to 50000 | 21000 to 50000 | C[C@@]12CCCN1C(=O)[C@H](Cc1ccc(O)cc1)NC(=O)[C@H](Cc1cnc[nH]1)NC(=O)[C@H](CC(=O)O)NC(=O)[C@H](Cc1c[nH]c3ccc(F)cc13)NC(=O)[C@H](Cc1c[nH]c3ccc(F)cc13)NC(=O)CNC(=O)[C@@H](CN)NC(=O)CCSCc1cccc(c1)CSC[C@@H](C(N)=O)NC2=O [Compound 354] ([Mpa][dDap]G[Trp(5-F)][Trp(5-F)]DHY[αMeP]C-NH2; linker 1-10 via mXylylene)
4 | 100 to 1000 | 100 to 1000 | C[C@@]12CCCN1C(=O)[C@H](Cc1ccc(O)cc1)NC(=O)[C@H](Cc1cnc[nH]1)NC(=O)[C@H](CC(=O)O)NC(=O)[C@H](Cc1c[nH]c3ccc(F)cc13)NC(=O)[C@H](Cc1c[nH]c3ccc(F)cc13)NC(=O)CNC(=O)[C@@H](CCN)NC(=O)CCSCc1cccc(c1)CSC[C@@H](C(N)=O)NC2=O [Compound 355] ([Mpa][dDab]G[Trp(5-F)][Trp(5-F)]DHY[αMeP]C-NH2; linker 1-10 via mXylylene)
5 | 1000 to 12100 | 1000 to 12100 | Cc1cc2cc(c1)CSC[C@@H](C(N)=O)NC(=O)[C@]1(C)CCCN1C(=O)[C@H](Cc1ccc(O)cc1)NC(=O)[C@H](Cc1c[nH]cn1)NC(=O)[C@H](CC(=O)O)NC(=O)[C@H](Cc1c[nH]c3ccc(F)cc13)NC(=O)[C@H](Cc1c[nH]c3ccc(F)cc13)NC(=O)CNC(=O)[C@H](CCCCN)NC(=O)CCSC2 [Compound 357] ([Mpa]KG[Trp(5-F)][Trp(5-F)]DHY[αMeP]C-NH2; linker 1-10 via TBMB)
6 | 100 to 1000 | 0.1 to 100 | C[C@@]12CCCN1C(=O)[C@H](Cc1ccc(O)cc1)NC(=O)[C@H](Cc1c[nH]cn1)NC(=O)[C@H](CC(=O)O)NC(=O)[C@H](Cc1c[nH]c3ccc(F)cc13)NC(=O)[C@H](Cc1c[nH]c3ccc(F)cc13)NC(=O)CNC(=O)[C@H](CCCCN)NC(=O)CCSCc1cc(O)cc(c1)CSC[C@@H](C(N)=O)NC2=O [Compound 359] ([Mpa]KG[Trp(5-F)][Trp(5-F)]DHY[αMeP]C-NH2; linker 1-10 via X22)
7 | 100 to 1000 | 0.1 to 100 | C[C@@]12CCCN1C(=O)[C@H](Cc1c[nH]c3ncccc13)NC(=O)[C@H](Cc1cnc[nH]1)NC(=O)[C@H](CC(=O)O)NC(=O)[C@H](Cc1c[nH]c3ccc(F)cc13)NC(=O)[C@H](Cc1c[nH]c3ccc(F)cc13)NC(=O)CNC(=O)[C@H](CCCCN)NC(=O)CCSCc1cccc(c1)CSC[C@@H](C(N)=O)NC2=O [Compound 360] ([Mpa]KG[Trp(5-F)][Trp(5-F)]DH[Trp(7-aza)][αMeP]C-NH2; linker 1-10 via mXylylene)
8 | 100 to 1000 | 0.1 to 100 | C[C@H]1NC(=O)[C@H](CCCCN)NC(=O)CCSCc2cccc(c2)CSC[C@@H](C(N)=O)NC(=O)[C@]2(C)CCCN2C(=O)[C@H](Cc2ccc(O)cc2)NC(=O)[C@H](Cc2cnc[nH]2)NC(=O)[C@H](C(C)(C)C(=O)O)NC(=O)[C@H](Cc2c[nH]c3ccc(F)cc23)NC(=O)[C@H](Cc2c[nH]c3ccc(F)cc23)NC1=O [Compound 361] ([Mpa]K[dA][Trp(5-F)][Trp(5-F)][Asp(3,3-Me2)]HY[αMeP]C-NH2; linker 1-10 via mXylylene)

Row | Structure (SMILES) | IC50 [1] [nM] | IC50 [2] [nM]
9 | COc1ccc(C[C@@H]2NC(=O)[C@H](Cc3cnc[nH]3)NC(=O)[C@H](CC(=O)O)NC(=O)[C@H](Cc3c[nH]c4ccc(F)cc34)NC(=O)[C@H](Cc3c[nH]c4ccc(F)cc34)NC(=O)[C@@H](C)NC(=O)[C@H](CCCCN)NC(=O)[C@@H](NC(C)=O)CCCc3cn(nn3)-c3ccc(cc3)C[C@@H](C(N)=O)NC(=O)[C@]3(C)CCCN3C2=O)cc1 [Compound 353] | 21000 to 50000 | 21000 to 50000
10 | COc1ccc(C[C@H]2NC(=O)[C@@H](Cc3c[nH]cn3)NC(=O)[C@@H](CC(=O)O)NC(=O)[C@@H](Cc3c[nH]c4ccc(F)cc34)NC(=O)[C@@H](Cc3c[nH]c4ccc(F)cc34)NC(=O)[C@H](C(C)(C)C)NC(=O)[C@@H](CCCCN)NC(=O)CCSCc3cccc(c3)CSCCNC(=O)[C@@]3(C)CCCN3C2=O)cc1 [Compound 362] (cyclo([Tle][dTrp(5-F)][dTrp(5-F)][dD][dH][dY](Me)[d(αMeP)][X4][dK])) | 0.11 to 100 | 0.1 to 100
